# Measured values taken from US7279161B2, “Factor IX/factor IXa activating antibodies and antibody derivatives” (Baxter Aktiengesellschaft, priority 1999, dated 2007).
# Entries after “also recorded” stand apart in the source; their conditions may differ.
# Experiments:
# [1] = target: T1, human FIXa (Homo sapiens, UniProt P00740); assay: Chromogenic FVIII-like (FXa generation) assay with human FIXa added; assay type: biochemical
# T1 construct: with (+) and without (−) addition of 50 ng human FIXaβ; purchased ERL (Enzyme Research Laboratories)
# Procedure: The chromogenic activity of these antibody preparations was measured in the following FXa generation kinetic assay: 10 μg of monoclonal antibody (in 25 μl) were transferred to microtiter plate wells and warmed to 37° C. Chromogenic substrate (S-2222), synthetic thrombin inhibitor (I-2581), factor IXa and FX were reconstituted in sterile water and FIXa/FX (both bovine) were mixed with phospholipids according to the supplier's protocol. Per reaction, 50 μl of the phospholipid/FIXa/FX solution were combined with 25 μl CaCl2 (25 mM) and 50 μl of the substrate/inhibitor cocktail. To start the reaction, 125 μl of the premix were added to the monoclonal antibody solution in the microtiter plates and incubated at 37° C. Absorbance at 405 nm and 490 nm of the samples was read at various times (5 min to 2 h) against a reagent blank ([…] TBS instead of monoclonal antibodies) in a Labsystems iEMS Reader MF™ microtiter plate reader using GENESIS™ software. In parallel, the same reactions were performed except that 50 ng human FIXa were added per reaction.
# To analyze the FVIII-like (FIXa activating) activity of the peptides, an assay system based on a commercial available FVIII assay was developed (see examples 2 and 4). The basic principle is, that without a cofactor, FIXa will have very limited activity towards its natural substrate FX. […] The amount of FXa generated is monitored by cleavage of a chromogenic substrate. The principle of the revised chromogenic assay is described for two representative peptides: A1/3 and A1/5 (Table 2). Briefly, 25 μl aliquots of peptide stock solution (in imidazole buffer (IZ) 50 mM imidazole, 100 mM NaCl, pH 7.2) were transferred to microtiter plate wells and warmed to 37° C. Chromogenic FXa substrate (S-2222), synthetic thrombin inhibitor (I-2581), bovine FIXa and bovine FX were reconstituted in sterile water and FIXa/FX mixed with phospholipids according to the supplier's protocol. […] Per reaction, 50 μl of the phospholipid/FIXa/FX solution were combined with 25 μl CaCl2 (25 mM) and 50 μl of the substrate/inhibitor cocktail. To start the reaction, 125 μl of the premix were added to the peptide solution in the microtiter plate and incubated at 37° C. Absorbance at 405 nm and 490 nm of the samples was read at various times (5 min to 2 h) against a reagent blank in a Labsystems iEMS Reader MF™ microtiter plate reader using GENESIS™ software.
# [2] = tested on: FVIII deficient plasma; assay: aPTT based one stage clotting assay in FVIII deficient plasma; assay type: biochemical, human; conditions: for one-stage clotting time (printed in brackets after 'strong reduction' / 'strongly active'): 2.2 nM human FIXa
# Procedure: During normal hemostasis, FIX becomes initially activated either by the tissue factor (TF)/factor VIIa pathway or later on by activated factor XI (FXIa). Subsequent to its activation, FIXa associates on the platelet surface in a membrane bound complex with activated FVIII. […] Different amounts of antibody 193/AD3 or mouse IgG (as a control) were used in a standard aPTT based one stage clotting assay. Briefly, 100 μl of antibody-containing samples were incubated with 100 μl of FVIII deficient plasma (DP) and with 100 μl of DAPTTIN (PTT Reagent for determining activated Thromboplastin Time; IMMUNO AG) reagent, in a KC10A clotting analyzer. Where indicated, a total amount of 50 ng activated FIX was included in the reaction mixture. After a 4 minute incubation, the reaction was started by the addition of 100 μl CaCl2 (25 mM).
# The peptides were also analyzed for their potential to reduce the clotting time in a FVIII deficient plasma. The aPTT based one stage clotting assay was essentially done as described (see example 6). Clotting times (time from starting the reaction to the “clot”-formation were compared either against FVIII, a buffer control (IZ) or a control peptide (scrambled version). The results of two typical clotting experiments done with two different aPTT reagents (DAPTTIN and Pathromtin SL) are shown in table 3A and table 3B.
# [3] = in the presence of 2.2 nM human FIXa
# [4] = 12.5 nM peptide, (+) presence of activated human FIX
# [5] = 12.5 nM peptide, (−) absence of activated human FIX
# [6] = 0.125 μM peptide, (+) presence of activated human FIX
# [7] = 0.125 μM peptide, (−) absence of activated human FIX
# [8] = 1.25 μM peptide, (+) presence of activated human FIX
# [9] = 1.25 μM peptide, (−) absence of activated human FIX
# [10] = 12.5 μM peptide, (+) presence of activated human FIX
# [11] = 12.5 μM peptide, (−) absence of activated human FIX
sequence,measurement,setting,value
RRREGAGYYVNWYFDRRR [A1/3-2],chromogenic activity,[1]; Alanine scan,high chromogenic activity
same,one-stage clotting time (printed in brackets after 'strong reduction' / 'strongly active'),[2]; 12.5 μM,34 s
same,one-stage clotting activity,[2]; [3],strong reduction of the one-stage clotting time
RRREGGAYYVNWYFDRRR [A1/3-3],final concentration of optimum chromogenic activity,[1],~12 µM
same,one-stage clotting time (printed in brackets after 'strong reduction' / 'strongly active'),[2]; 12.5 μM,31 s
same,one-stage clotting activity,"[2]; higher concentrations (12.5 μM), absence of FIXa",somewhat inhibitory
same,one-stage clotting activity,[2]; [3],strongly active
RRREGGEYYVNWYFDRRR [A1/3-24],chromogenic FVIII-like activity at higher concentrations,[1]; up to 24 μM,lost activity
same,procoagulant activity,[2]; absence of human FIXa,no procoagulant activity
same,one-stage clotting activity,[2]; [3],strongly active
RRREGGGFTVNWYFDRRR [B1/7],FIXa activating activity (generation of FXa),"[1]; 2.4 μM peptide, 2.3 nM human FIXa",well measurable generation of FXa; also recorded: measureable generation of Fxa
same,FXa generation without FIXa and FX,"[1]; 2.4 μM peptide, w/o FIXa/FX",no FXa was synthesized; also recorded: no reaction is detectable
same,clotting time,[2]; [4],99 s
same,clotting time,[2]; [5],110 s
same,clotting time,[2]; [6],99 s
same,clotting time,[2]; [7],109 s
same,clotting time,[2]; [8],92 s
same,clotting time,[2]; [9],112 s
same,clotting time,[2]; [10],83 s
same,clotting time,[2]; [11],157 s
RRRFGVGYGETNFDWRRR [B1/7scr3],FIXa activating activity in chromogenic assay,[1]; data not shown,no activity
same,clotting time,[2]; [4],94 s
same,clotting time,[2]; [5],105 s
same,clotting time,[2]; [6],94 s
same,clotting time,[2]; [7],106 s
same,clotting time,[2]; [8],94 s
same,clotting time,[2]; [9],105 s
same,clotting time,[2]; [10],102 s
same,clotting time,[2]; [11],115 s
RRRGEYGVYWNGDFYRRR [A1/3-scr3],chromogenic FVIII-like activity (FXa generation),[1]; 2.9 nM human FIXa,did not give any significant chromogenic activity
same,average clotting time,"[2]; Table 3A Exp. 1, DAPTTIN, 2.5 μM, 2.2 nM FIXa",96 s
same,clotting time,"[2]; Table 3A Exp. 1, DAPTTIN, 2.5 μM, 2.2 nM FIXa, duplicate 1",96.3 s
same,clotting time,"[2]; Table 3A Exp. 1, DAPTTIN, 2.5 μM, 2.2 nM FIXa, duplicate 2",95.2 s
same,average clotting time,"[2]; Table 3A Exp. 1, DAPTTIN, 2.5 μM, w/o FIXa",108 s
same,clotting time,"[2]; Table 3A Exp. 1, DAPTTIN, 2.5 μM, w/o FIXa, duplicate 1",107.8 s
same,clotting time,"[2]; Table 3A Exp. 1, DAPTTIN, 2.5 μM, w/o FIXa, duplicate 2",107.4 s
same,average clotting time,"[2]; Table 3A Exp. 1, DAPTTIN, 7.5 μM, 2.2 nM FIXa",101 s
same,clotting time,"[2]; Table 3A Exp. 1, DAPTTIN, 7.5 μM, 2.2 nM FIXa, duplicate 1",100.8 s
same,clotting time,"[2]; Table 3A Exp. 1, DAPTTIN, 7.5 μM, 2.2 nM FIXa, duplicate 2",100.6 s
same,average clotting time,"[2]; Table 3A Exp. 1, DAPTTIN, 7.5 μM, w/o FIXa",114 s
same,clotting time,"[2]; Table 3A Exp. 1, DAPTTIN, 7.5 μM, w/o FIXa, duplicate 1",114.2 s
same,clotting time,"[2]; Table 3A Exp. 1, DAPTTIN, 7.5 μM, w/o FIXa, duplicate 2",113.9 s
same,average clotting time,"[2]; Table 3A Exp. 1, DAPTTIN, 12.5 μM, 2.2 nM FIXa",104 s
same,clotting time,"[2]; Table 3A Exp. 1, DAPTTIN, 12.5 μM, 2.2 nM FIXa, duplicate 1",103.1 s
same,clotting time,"[2]; Table 3A Exp. 1, DAPTTIN, 12.5 μM, 2.2 nM FIXa, duplicate 2",104.5 s
same,average clotting time,"[2]; Table 3A Exp. 1, DAPTTIN, 12.5 μM, w/o FIXa",117 s
same,clotting time,"[2]; Table 3A Exp. 1, DAPTTIN, 12.5 μM, w/o FIXa, duplicate 1",116 s
same,clotting time,"[2]; Table 3A Exp. 1, DAPTTIN, 12.5 μM, w/o FIXa, duplicate 2",117.6 s
same,average clotting time,"[2]; Table 3A Exp. 1, DAPTTIN, 15 μM, 2.2 nM FIXa",106 s
same,clotting time,"[2]; Table 3A Exp. 1, DAPTTIN, 15 μM, 2.2 nM FIXa, duplicate 1",106.1 s
same,clotting time,"[2]; Table 3A Exp. 1, DAPTTIN, 15 μM, 2.2 nM FIXa, duplicate 2",105.5 s
same,average clotting time,"[2]; Table 3A Exp. 1, DAPTTIN, 15 μM, w/o FIXa",122 s
same,clotting time,"[2]; Table 3A Exp. 1, DAPTTIN, 15 μM, w/o FIXa, duplicate 1",122.5 s
same,clotting time,"[2]; Table 3A Exp. 1, DAPTTIN, 15 μM, w/o FIXa, duplicate 2",122 s
